Tests used:
Rat [1] = experiment: concentration in liver after dosing; settings: 24 h; dosed: Perfluorooctane Sulfonate; 20 mg/kg; oral; Male; Harlan Sprague Dawley
Rat [2] = experiment: concentration in liver after dosing; settings: 864 h; dosed: Perfluorooctane Sulfonate; 2 mg/kg; oral; Female; Harlan Sprague Dawley
Rat [3] = experiment: concentration in kidney after dosing; settings: 24 h; dosed: Perfluorooctane Sulfonate; 20 mg/kg; oral; Male; Harlan Sprague Dawley
Rat [4] = experiment: concentration in plasma after dosing; settings: dosed: Perfluorooctane Sulfonate, 2 mg/kg, iv, Male, F344
Rat [5] = experiment: concentration in brain after dosing; settings: 3360 h; dosed: Perfluorooctane Sulfonate; 20 mg/kg; oral; Male; Harlan Sprague Dawley
Rat [6] = experiment: concentration in kidney after dosing; settings: 24 h; dosed: Perfluorooctane Sulfonate; 20 mg/kg; oral; Female; F344
Rat [7] = experiment: concentration in kidney after dosing; settings: 864 h; dosed: Perfluorooctane Sulfonate; 2 mg/kg; oral; Female; Harlan Sprague Dawley
Rat [8] = experiment: concentration in liver after dosing; settings: 1848 h; dosed: Perfluorooctane Sulfonate; 2 mg/kg; oral; Female; Harlan Sprague Dawley
Rat [9] = experiment: concentration in kidney after dosing; settings: 864 h; dosed: Perfluorooctane Sulfonate; 2 mg/kg; oral; Female; Harlan Sprague Dawley; remark: listed apart in the source
Rat [10] = experiment: concentration in brain after dosing; settings: 24 h; dosed: Perfluorooctane Sulfonate; 2 mg/kg; oral; Female; Harlan Sprague Dawley
Rat [11] = experiment: concentration in liver after dosing; settings: 6 h; dosed: Perfluorooctane Sulfonate; 20 mg/kg; oral; Male; Harlan Sprague Dawley
Rat [12] = experiment: concentration in plasma after dosing; settings: 0.5 h; dosed: Perfluorohexanoic Acid; 80 mg/kg; oral; Male; Harlan Sprague Dawley
Rat [13] = experiment: concentration in liver after dosing; settings: 6 h; dosed: Perfluorohexanoic Acid; 80 mg/kg; oral; Female; Harlan Sprague Dawley
Rat [14] = experiment: concentration in plasma after dosing; settings: 3 h; dosed: Perfluorohexanoic Acid; 80 mg/kg; oral; Male; Harlan Sprague Dawley
Rat [15] = experiment: concentration in kidney after dosing; settings: 0.5 h; dosed: Perfluorohexanoic Acid; 80 mg/kg; oral; Female; Harlan Sprague Dawley
Rat [16] = experiment: concentration in brain after dosing; settings: 1 h; dosed: Perfluorohexanoic Acid; 80 mg/kg; oral; Male; Harlan Sprague Dawley
Rat [17] = experiment: concentration in kidney after dosing; settings: 1 h; dosed: Perfluorohexanoic Acid; 80 mg/kg; oral; Male; Harlan Sprague Dawley
Rat [18] = experiment: concentration in plasma after dosing; settings: 5 min; dosed: Perfluorohexanoic Acid; 40 mg/kg; iv; Male; F344
Rat [19] = experiment: concentration in liver after dosing; settings: 0.5 h; dosed: Perfluorohexanoic Acid; 80 mg/kg; oral; Female; Harlan Sprague Dawley
Rat [20] = experiment: concentration in plasma after dosing; settings: dosed: Perfluorohexanoic Acid, 80 mg/kg, oral, Male, Harlan Sprague Dawley
Rat [21] = experiment: concentration in plasma after dosing; settings: dosed: Perfluorohexanoic Acid, 40 mg/kg, oral, Male, Harlan Sprague Dawley
Rat [22] = experiment: concentration in plasma after dosing; settings: 1 h; dosed: Perfluorohexanoic Acid; 40 mg/kg; iv; Female; Harlan Sprague-Dawley
Rat [23] = experiment: concentration in plasma after dosing; settings: 0.5 h; dosed: Gemfibrozil; 50 mg/kg; oral; Male; Sprague-Dawley
Rat [24] = experiment: concentration in plasma after dosing; settings: 0.25 h; dosed: Gemfibrozil; 4.29 mg/kg; oral; Male; Sprague-Dawley
Rat [25] = experiment: concentration in plasma after dosing; settings: 0.25 h; dosed: Gemfibrozil; 100 mg/kg; oral; Male; Sprague-Dawley
Rat [26] = experiment: concentration in brain after dosing; settings: 1.5 h; dosed: 2-Methyltetrahydrofuran; 40 mg/kg; iv; Male; Harlan Sprague Dawley
Rat [27] = experiment: concentration in brain after dosing; settings: 7 min; dosed: 2-Methyltetrahydrofuran; 40 mg/kg; iv; Male; Harlan Sprague Dawley
Rat [28] = experiment: concentration in brain after dosing; settings: 0.5 h; dosed: 2-Methyltetrahydrofuran; 40 mg/kg; iv; Male; Harlan Sprague Dawley
Rat [29] = experiment: concentration in brain after dosing; settings: 2 h; dosed: 2-Methyltetrahydrofuran; 40 mg/kg; iv; Female; Harlan Sprague Dawley
Rat [30] = experiment: concentration in plasma after dosing; settings: 7 min; dosed: 2-Methyltetrahydrofuran; 40 mg/kg; iv; Male; Harlan Sprague Dawley
Rat [31] = experiment: concentration in kidney after dosing; settings: 1 h; dosed: Fluorotelomer alcohol 8+2; 80 mg/kg; oral; Female; Harlan Sprague Dawley
Rat [32] = experiment: concentration in plasma after dosing; settings: dosed: 678-39-7, 12 mg/kg, iv, Male, F344
Rat [33] = experiment: concentration in brain after dosing; settings: 6 h; dosed: Fluorotelomer alcohol 8+2; 80 mg/kg; oral; Female; Harlan Sprague Dawley
Rat [34] = experiment: concentration in brain after dosing; settings: 1 h; dosed: Fluorotelomer alcohol 8+2; 24 mg/kg; oral; Male; Harlan Sprague Dawley
Rat [35] = experiment: concentration in plasma after dosing; settings: 192 h; dosed: 678-39-7; 40 mg/kg; iv; Male; F344
Rat [36] = experiment: concentration in plasma after dosing; settings: dosed: 678-39-7, 40 mg/kg, iv, Female, Harlan Sprague-Dawley
Rat [37] = experiment: concentration in brain after dosing; settings: 6 h; dosed: Fluorotelomer alcohol 8+2; 80 mg/kg; oral; Female; Harlan Sprague Dawley; remark: listed apart in the source
Rat [38] = experiment: concentration in kidney after dosing; settings: 6 h; dosed: Fluorotelomer alcohol 8+2; 80 mg/kg; oral; Female; Harlan Sprague Dawley
Rat [39] = experiment: concentration in brain after dosing; settings: 12 h; dosed: Fluorotelomer alcohol 8+2; 80 mg/kg; oral; Female; Harlan Sprague Dawley
Rat [40] = experiment: concentration in plasma after dosing; settings: 192 h; dosed: Fluorotelomer alcohol 8+2; 24 mg/kg; oral; Male; Harlan Sprague Dawley
Rat [41] = experiment: concentration in kidney after dosing; settings: 12 h; dosed: Fluorotelomer alcohol 8+2; 80 mg/kg; oral; Female; Harlan Sprague Dawley

O=S(=O)([O-])C(F)(F)C(F)(F)C(F)(F)C(F)(F)C(F)(F)C(F)(F)C(F)(F)C(F)(F)F [Perfluorooctane Sulfonate]
Settings | concentration in brain [ng/g] | concentration in kidney [ng/g] | concentration in liver [ng/g]
Rat [1] | – | – | 157000
Rat [2] | – | – | 17500
Rat [3] | – | 82400 | –
Rat [5] | 890 | – | –
Rat [6] | – | 132000 | –
Rat [7] | – | 2960 | –
Rat [8] | – | – | 5940
Rat [9] | – | 3420 | –
Rat [10] | 920 | – | –
Rat [11] | – | – | 204000

Rat [4]
Settings | concentration in plasma [ng/mL]
12 h | 4350
864 h | 995
3216 h | 99.5

O=C(O)C(F)(F)C(F)(F)C(F)(F)C(F)(F)C(F)(F)F [Perfluorohexanoic Acid]
Settings | concentration in brain [ng/g] | concentration in kidney [ng/g] | concentration in liver [ng/g] | concentration in plasma [ng/mL]
Rat [12] | – | – | – | 151000
Rat [13] | – | – | 820 | –
Rat [14] | – | – | – | 76100
Rat [15] | – | 48100 | – | –
Rat [16] | 2830 | – | – | –
Rat [17] | – | 79900 | – | –
Rat [18] | – | – | – | 18600
Rat [19] | – | – | 24900 | –
Rat [22] | – | – | – | 98.9

concentration in plasma [ng/mL]
Settings | 0.5 h | 5 min | 9 h
Rat [20] | – | 35400 | 3240
Rat [21] | 65500 | – | 4960

Cc1ccc(C)c(OCCCC(C)(C)C(=O)O)c1 [Gemfibrozil]
Settings | concentration in plasma [ng/mL]
Rat [23] | 4640
Rat [24] | 1640
Rat [25] | 72300

CC1CCCO1 (configuration not stated) [2-Methyltetrahydrofuran]
Settings | concentration in brain [ng/mL] | concentration in plasma [ng/mL]
Rat [26] | 8330 | –
Rat [27] | 34000 | –
Rat [28] | 16200 | –
Rat [29] | 3530 | –
Rat [30] | – | 53800

O=C(O)CCC(F)(F)C(F)(F)C(F)(F)C(F)(F)C(F)(F)C(F)(F)C(F)(F)F [Fluorotelomer acid 7+3]
Settings | concentration in brain [ng/g] | concentration in kidney [ng/g] | concentration in plasma [ng/mL]
Rat [31] | – | 762 | –
Rat [33] | 1040 | – | –
Rat [34] | 128 | – | –
Rat [35] | – | – | 49.7
Rat [37] | 1470 | – | –
Rat [38] | – | 3960 | –
Rat [39] | 432 | – | –
Rat [40] | – | – | 62.9
Rat [41] | – | 3110 | –

concentration in plasma [ng/mL]
Settings | 1 h | 6 h | 24 h
Rat [32] | 502 | 706 | –
Rat [36] | 1680 | – | 315
